Test results published in PMC9995496, “A screen for MeCP2-TBL1 interaction inhibitors using a luminescence-based assay” (Scientific Reports, 2023).
Counter-ions that a name gives are not always drawn. Like-named read-outs stand apart in the source and are kept apart here.

Test system: PRKACA-PRKAR2A interaction (SmBiT-PRKACA / LgBiT-PRKAR2A), protein kinase A
Parameters: NanoLuc complementation counter-screen in cell extract, PRKACA with PRKAR2A, loss of luminescence, detects NanoLuc interference
Conditions: counter-screen for NanoLuc interference, 0.5 h, 20 µM, inhibitor

Row | SMILES | Inh (PKA) [%] | Inh (PKA) (Inh (PKA)) [%]
1 | CC(C)C[C@H](NC(=O)CNC(=O)c1cc(Cl)ccc1Cl)B1OC(=O)C(CC(=O)O)(CC(=O)O)O1 [UM0141662:01, MLN9708] | -0.4944 | 
2 | CC(C)C[C@H](NC(=O)CNC(=O)c1cc(Cl)ccc1Cl)B(O)O [UM0141663:01, MLN2238] | 0.9496 | 
3 | CC(C)C[C@H](NC(=O)[C@@H](NC(=O)c1cccc(-c2ccccc2)n1)[C@@H](C)O)B(O)O [UM0141664:01, CEP-18770] | 2.205 | 
4 | COc1ccc(C[C@H](NC(=O)[C@H](C)NC(=O)CN2CCOCC2)C(=O)N[C@@H](Cc2ccccc2)C(=O)[C@@]2(C)CO2)cc1 [UM0141665:01, ONX-0914 (PR-957)] | 2.946 | 
5 | C[C@H](NC(=O)Cc1cc(F)cc(F)c1)C(=O)N[C@@H]1C(=O)N(C)c2ccccc2-c2ccccc21 [UM0141666:01, YO-01027 (Dibenzazepine, DBZ)] | 4.42 | 
6 | C[C@H](NC(=O)[C@@H](O)c1cc(F)cc(F)c1)C(=O)N[C@@H]1C(=O)N(C)c2ccccc2-c2ccccc21 [UM0141667:01, LY-411575] | 13.09 | 
7 | NC(=O)[C@@H](CCC(F)(F)F)N(Cc1ccc(-c2ncon2)cc1F)S(=O)(=O)c1ccc(Cl)cc1 [UM0141668:01, BMS-708163 (Avagacestat)] | 25.28 | 
8 | C[C@H](NC(=O)CCC(F)(F)F)C(=O)N[C@@H]1C(=O)N(CCO)c2ncccc2-c2ccccc21 [UM0141669:01, LY3039478] | -1.62 | 
9 | CC(C)(C)OC(=O)N[C@H]1CCCCC/C=C\[C@@H]2C[C@@]2(C(=O)NS(=O)(=O)C2CC2)NC(=O)[C@@H]2C[C@@H](OC(=O)N3Cc4cccc(F)c4C3)CN2C1=O [UM0141670:01, Danoprevir (RG7227)] | 3.662 | 
10 | CCC[C@H](NC(=O)[C@@H]1[C@H]2CCC[C@H]2CN1C(=O)[C@@H](NC(=O)[C@@H](NC(=O)c1cnccn1)C1CCCCC1)C(C)(C)C)C(=O)C(=O)NC1CC1 [UM0141671:01, Telaprevir (VX-950)] | 3.048 | 
11 | CC(C)(C)C#Cc1cc(N(C(=O)[C@H]2CC[C@H](C)CC2)[C@H]2CC[C@H](O)CC2)c(C(=O)O)s1 [UM0141672:01, VX-222 (VCH-222, Lomibuvir)] | 8.385 | 
12 | CC#CCn1c(N2CCC[C@@H](N)C2)nc2c1c(=O)n(Cc1nc(C)c3ccccc3n1)c(=O)n2C [UM0141673:01, Linagliptin (BI-1356)] | 1.695 | 
13 | N[C@@H](CC(=O)N1CCn2c(nnc2C(F)(F)F)C1)Cc1cc(F)c(F)cc1F [UM0141674:01, Sitagliptin phosphate monohydrate] |  | 0.152
14 | N#C[C@@H]1CCCN1C(=O)CNC12CC3CC(CC(O)(C3)C1)C2 [UM0141675:01, Vildagliptin (LAF-237)] | 0.7818 | 
15 | Cn1c(=O)cc(N2CCC[C@@H](N)C2)n(Cc2ccccc2C#N)c1=O [UM0141676:01, Alogliptin (SYR-322)] |  | 0.7637
16 | COC(=O)N[C@H](C(=O)N[C@@H](Cc1ccccc1)[C@@H](O)CN(Cc1ccc(-c2ccccn2)cc1)NC(=O)[C@@H](NC(=O)OC)C(C)(C)C)C(C)(C)C [UM0141677:01, Atazanavir sulfate (BMS-232632-05)] |  | 2.404
17 | CNC(=O)[C@@H](NC(=O)[C@H](CC(C)C)[C@H](O)C(=O)NO)C(C)(C)C [UM0141678:01, Marimastat] | 0.03588 | 
18 | CNC(=O)[C@H](Cc1c[nH]c2ccccc12)NC(=O)[C@@H](CC(=O)NO)CC(C)C [UM0141679:01, GM 6001] | -1.568 | 
19 | CCCC(C)NC(=O)c1ccc(Cl)c(Cl)c1 (stereo not shown) [UM0141680:01, NSC 405020] | 15.79 | 
20 | C[C@H]1c2cccc(O)c2C(=O)C2=C(O)[C@]3(O)C(=O)C(C(N)=O)=C(O)[C@@H](N(C)C)[C@@H]3[C@@H](O)[C@@H]21 [UM0141681:01, Doxycycline hyclate] |  | 1.233

Row | SMILES | Inh (PKA) [%] | Inh (PKA) (Inh (PKA)) [%]
21 | C=CCNC1=C2C[C@@H](C)C[C@H](OC)[C@H](O)[C@@H](C)/C=C(\C)[C@H](OC(N)=O)[C@@H](OC)/C=C\C=C(/C)C(=O)NC(=CC1=O)C2=O [UM0141682:01, 17-AAG (KOS953)] | 8.06 | 
22 | CC(C)c1cc(C(=O)N2Cc3ccc(CN4CCN(C)CC4)cc3C2)c(O)cc1O [UM0141683:01, AT13387] | 8.919 | 
23 | CCNC(=O)c1noc(-c2cc(C(C)C)c(O)cc2O)c1-c1ccc(CN2CCOCC2)cc1 [UM0141684:01, AUY922 (NVP-AUY922)] | 15.87 | 
24 | COc1c(C)cnc(Cn2cnc3c(Cl)nc(N)nc32)c1C [UM0141685:01, BIIB021] | 2.432 | 
25 | COC1=C2C[C@@H](C)C[C@H](OC)[C@H](O)[C@@H](C)/C=C(\C)[C@H](OC(N)=O)[C@@H](OC)/C=C\C=C(/C)C(=O)NC(=CC1=O)C2=O [UM0141686:01, Geldanamycin] | 5.017 | 
26 | CC1(C)CC(=O)c2c(C(F)(F)F)nn(-c3ccc(C(N)=O)c(N[C@H]4CC[C@H](OC(=O)CN)CC4)c3)c2C1 [UM0141688:01, PF-04929113 (SNX-5422)] | 8.876 | 
27 | CC1(C)CC(=O)c2c(C(F)(F)F)nn(-c3ccc(C(N)=O)c(N[C@H]4CC[C@H](O)CC4)c3)c2C1 [UM0141689:01, SNX-2112] | 12.62 | 
28 | Cn1c(N2CCCCS2(=O)=O)nc(C(=O)NCc2ccc(F)cc2)c(O)c1=O [UM0141690:01, BMS-707035] | 4.266 | 
29 | COc1cc2c(cc1Cc1cccc(Cl)c1F)c(=O)c(C(=O)O)cn2[C@H](CO)C(C)C [UM0141691:01, Elvitegravir (GS-9137)] | 4.883 | 
30 | CCN1C[C@H](C)n2c(c(O)c3c(=O)n(Cc4ccc(F)c(Cl)c4)nc(C(=O)NC)c32)C1=O [UM0141692:01, MK-2048] | 3.571 | 
31 | Cc1nnc(C(=O)NC(C)(C)c2nc(C(=O)NCc3ccc(F)cc3)c(O)c(=O)n2C)o1 [UM0141693:01, Raltegravir (MK-0518)] | 1.324 | 
32 | C[C@@H]1CCO[C@H]2Cn3cc(C(=O)NCc4ccc(F)cc4F)c(=O)c(O)c3C(=O)N12 [UM0141694:01, S/GSK1349572] | 3.965 | 
33 | O=C(CCCCCCNC(=O)c1cnc(N(c2ccccc2)c2ccccc2)nc1)NO [UM0141695:01, Rocilinostat (ACY-1215)] | 1.949 | 
34 | Nc1ccccc1NC(=O)c1ccc(CNc2nccc(-c3cccnc3)n2)cc1 [UM0141696:01, Mocetinostat (MGCD0103, MG0103)] | 5.263 | 
35 | Cn1cc(CNCC2CCN(c3ncc(C(=O)NO)cn3)CC2)c2ccccc21 [UM0141697:01, JNJ-26481585] | 2.58 | 
36 | COc1ccc(Cn2ccc3ccc(C(=O)NO)cc32)cc1 [UM0141698:01, PCI-34051] | 4.873 | 
37 | C#Cc1cccc(Nc2ncnc3cc(OC)c(OCCCCCCC(=O)NO)cc23)c1 [UM0141699:01, CUDC-101] | 11.72 | 
38 | CCN(CC)Cc1ccc2cc(COC(=O)Nc3ccc(C(=O)NO)cc3)ccc2c1 [UM0141700:01, ITF2357 (Givinostat)] | 1.847 | 
39 | Cn1cc(/C=C/C(=O)c2cccc(F)c2)cc1/C=C/C(=O)NO [UM0141701:01, MC1568] | 48.72 | 
40 | O=C(/C=C/c1cccc(S(=O)(=O)Nc2ccccc2)c1)NO [UM0141702:01, Belinostat (PXD101)] | 1.422 | 

Row | SMILES | Inh (PKA) [%] | Inh (PKA) (Inh (PKA)) [%]
41 | CN(C)Cc1c(C(=O)NCCOc2ccc(C(=O)NO)cc2)oc2ccccc12 [UM0141704:01, PCI-24781 (CRA-024781)] | 0.8331 | 
42 | O=C(/C=C/c1ccc(CN(CCO)CCc2c[nH]c3ccccc23)cc1)NO [UM0141707:01, LAQ824 (NVP-LAQ824,Dacinostat)] | 3.4 | 
43 | CC(C)[C@H](C(=O)Nc1ccc(C(=O)NO)cc1)c1ccccc1 [UM0141708:01, AR-42 (OSU-HDAC42)] | 2.219 | 
44 | CN(C)c1ccc(C(=O)NCCCCCCC(=O)NO)cc1 [UM0141709:01, M344] | 1.639 | 
45 | COc1cc2c(Nc3ccc(NC(=O)c4ccccc4)cc3)ncnc2cc1OCCCN1CCOCC1 [UM0141710:01, ZM 447439] | 1.101 | 
46 | O=C(O)c1ccc(Nc2ncc3c(n2)-c2ccc(Cl)cc2C(c2c(F)cccc2F)=NC3)cc1 [UM0141711:01, MLN8054] | 70.21 | 
47 | Nc1nc(Nc2ccc(S(N)(=O)=O)cc2)nn1C(=O)c1c(F)cccc1F [UM0141712:01, JNJ-7706621] | 15.42 | 
48 | CO[C@@H](C(=O)N1Cc2[nH]nc(NC(=O)c3ccc(N4CCN(C)CC4)cc3)c2C1)c1ccccc1 [UM0141713:01, Danusertib (PHA-739358)] | 4.91 | 
49 | O=C(Nc1c[nH]nc1-c1nc2ccc(CN3CCOCC3)cc2[nH]1)NC1CC1 [UM0141714:01, AT9283] | 10.96 | 
50 | CCS(=O)(=O)Nc1ccc2c(c1)/C(=C(/Nc1ccc(CN3CCCCC3)cc1)c1ccccc1)C(=O)N2 [UM0141715:01, Hesperadin] | 53.45 | 
51 | Cc1csc(-c2nnc(Nc3ccc(Oc4ncccc4-c4ccnc(N)n4)cc3)c3ccccc23)c1 [UM0141716:01, AMG-900] | 63.02 | 
52 | O=C(O)[C@]1(Cc2cccc(Nc3nccs3)n2)CC[C@@H](Oc2cccc(Cl)c2F)CC1 [UM0141717:01, MK-5108 (VX-689)] | 44.53 | 
53 | O=C(Nc1cccc(Cl)c1)Nc1ncc(CCNc2ncnc3ccsc23)s1 [UM0141718:01, SNS-314 Mesylate] | 29.21 | 
54 | CCc1cccc(CC)c1NC(=O)N1Cc2[nH]nc(NC(=O)c3ccc(N4CCN(C)CC4)cc3)c2C1 [UM0141719:01, PHA-680632] | 7.851 | 
55 | O=C(c1ccc(/C=C/c2n[nH]c3ccccc23)cc1)N1CCNCC1 [UM0141720:01, KW 2449] | 34.71 | 
56 | CCS(=O)(=O)c1cccc(-c2cc(C(=O)NC3CCN(C)CC3)c(C)c3[nH]c4ncc(C)cc4c23)c1 [UM0141721:01, TAK-901] | 28.15 | 
57 | Cc1nc(N)sc1-c1ccnc(Nc2ccc(N3CCOCC3)cc2)n1 [UM0141722:01, CYC116] | 23.62 | 
58 | CCN1CCN(C(=O)Cc2ccc(Nc3ncc(F)c(Nc4ccc(C(=O)Nc5ccccc5Cl)cc4)n3)cc2)CC1 [UM0141723:01, Aurora A Inhibitor I] | 22.92 | 
